“Also recorded” adds a separate entry of the source.
How the values were obtained:
[1] = Capillary resistance in rats fed on vitamin P deprived diet; format: in vivo; conditions: for Percent increase (capillary resistance) in comparison with controls: n = 8
Experimental: The latter was evaluated by the method of Charlier R. et al., Arch. Int. Physiol. Bioch.

[2] = Activity on wound scar resistance in normal mice by oral route (force necessary for breaking a cutaneous scar); format: in vivo; conditions: n = 20
Source text: The method used was that of Sixth et al., Arzneim. Forsch. 18, 1460, 1968.

[3] = Wound healing activity by oral route in rats treated with prednisone; format: in vivo; conditions: for Surface after 3 days of administrations (m ± s.e.) / percent variation of surface in comparison with prednisone controls: oral; for percent variation of surface in comparison with prednisone controls: after 3 days
Source text: (§1) The triterpene fraction obtained from Centella asiatica (CATS), a well-known cicatrizant or healing agent widely used in some European countries, has been chosen as comparison drug.

[4] = tested on: rat brain; experiment: Rat brain ex vivo anti-lipid peroxidation test
Experimental: (§2) Proanthocyanidine A2 was assayed for anti-lipid peroxidation activity "in vitro" on rat brain homogenate according to the method of Saeed S. A. et al., Biochem. Soc. Trans 9, 442-443, 1981 and on rat hepatic microsomes according to the method of Jha H. C. et al., Biochem. Pharmacol. 34 , 1367-1369, 1985. […] This activity was confirmed on a rat brain "ex vivo" test.

[5] = Acute toxicity on topical administration; conditions: administered topically
[6] = tested on: rat hepatic microsomes; experiment: NADPH consumption by hepatic microsomes; format: biochemical; conditions: for IC50: NADPH 500 μM + Fe^2+ 20 μM + ADP 500 μM
[7] = Acute toxicity in the mouse; conditions: for LD50: mouse, in vivo
Experimental: (§3) The acute toxicity of proanthocyanidine A2 was determined in the mouse and rat on administration by the oral and intreperitoneal routes.

[8] = Anti-ulcer activity after i.p. administration on ASA induced gastric ulcers in rats; format: in vivo; conditions: for Changes in U.I. in comparison with controls / No. of stomach without lesions / Ulceration index (U.I.) mean: i.p., n = 10
Source text: This activity is believed to be a consequence of its healing activity and microcirculation protecting activity.

[9] = tested on: rat hepatic microsomes; experiment: In vitro inhibition of lipid peroxidation (MDA formation) on rat hepatic microsomes; format: biochemical; conditions: for IC50: in vitro, rat hepatic microsomes + NADPH + Fe^2+ ADP
[10] = Wound healing activity on prednisone treated rats by topical application; format: in vivo
Source text: as §1

[11] = Acute toxicity in the rat; conditions: in vivo
Experimental: as §3

[12] = Healing (cicatrising) activity, general statement (topical and oral route, normal and steroid treated animals); conditions: in vivo
[13] = tested on: rat brain homogenate; experiment: In vitro inhibition of lipid peroxidation (MDA formation) on rat brain homogenate; format: biochemical; conditions: for IC50: rat brain homogenate
Experimental: as §2

Structure (SMILES): Oc1cc(O)c2c(c1)O[C@@]1(c3ccc(O)c(O)c3)Oc3cc(O)c4c(c3[C@@H]2[C@H]1O)O[C@H](c1ccc(O)c(O)c1)[C@H](O)C4 [Proanthocyanidine A2]
- vasotropic / venotonic activity (in words) ([1]; capillary permeability and resistance): possesses a vasotropic activity in terms of modification of capillary permeability and resistance; also recorded: normalizing conditions of impaired capillary permeability and capillary fragility
- Percent increase (capillary resistance) in comparison with controls ([1]; oral 200 mg/kg × 3 days, 0 hours after third administration): 5%
- Percent increase (capillary resistance) in comparison with controls ([1]; oral 200 mg/kg × 3 days, 2 hours after third administration): 9%
- Percent increase (capillary resistance) in comparison with controls ([1]; oral 200 mg/kg × 3 days, 4 hours after third administration): 9%
- Percent increase (capillary resistance) in comparison with controls ([1]; oral 200 mg/kg × 3 days, 6 hours after third administration): 6%
- Percent increase (capillary resistance) in comparison with controls ([1]; oral 400 mg/kg × 3 days, 0 hours after third administration): 7%
- Percent increase (capillary resistance) in comparison with controls ([1]; oral 400 mg/kg × 3 days, 2 hours after third administration): 15%
- Percent increase (capillary resistance) in comparison with controls ([1]; oral 400 mg/kg × 3 days, 4 hours after third administration): 14%
- Percent increase (capillary resistance) in comparison with controls ([1]; oral 400 mg/kg × 3 days, 6 hours after third administration): 13%
- Percent increase in comparison (with controls) ([2]; 100 mg/kg): +32.5%
- Tension (m + S.E.) ([2]; 100 mg/kg): 104.11 + 4.25 g
- Percent increase in comparison (with controls) ([2]; 200 mg/kg): +46.6%
- Tension (m + S.E.) ([2]; 200 mg/kg): 115.12 + 4.90 g
- Surface after 3 days of administrations (m ± s.e.) ([3]; 50 mg/kg): 280.47 ± 7.01 mm^2
- percent variation of surface in comparison with prednisone controls ([3]; 50 mg/kg): -9.15%
- Surface after 3 days of administrations (m ± s.e.) ([3]; 100 mg/kg): 271.82 ± 5.35 mm^2
- percent variation of surface in comparison with prednisone controls ([3]; 100 mg/kg): -11.95%
- Surface after 3 days of administrations (m ± s.e.) ([3]; 200 mg/kg): 265.88 ± 4.38 mm^2
- percent variation of surface in comparison with prednisone controls ([3]; 200 mg/kg): -13.87%
- Surface after 3 days of administrations (m ± s.e.) ([3]; 400 mg/kg): 259.99 ± 7.72 mm^2
- percent variation of surface in comparison with prednisone controls ([3]; 400 mg/kg): -15.78%
- reduction of the area of wounds (in words) ([3]; rats, Tables 2 and 3): favourable effect
- anti-lipid peroxidation activity ex vivo (in words) [4]: confirmed
- acute toxicity (in words) [5]: negligable acute toxicity
- IC50 [6]: 14 µM
- column headed by drawing 3 (hepatic microsomes) (ratio of NADPH consumption IC50 to MDA formation IC50, by arithmetic) ([6]; hepatic microsomes): 17.5
- inhibiting activity on NADPH consumption (in words) ([6]; in vitro, hepatic microsomes): low inhibiting activity
- LD50 ([7]; ip): > 6000 mg/kg
- LD50 ([7]; po): > 6000 mg/kg
- acute toxicity (in words) ([7]; oral and intraperitoneal routes, mouse and rat): does not exhibit significant acute toxicity
- Changes in U.I. in comparison with controls ([8]; 100 mg/kg): -18,4
- No. of stomach without lesions ([8]; 100 mg/kg): 0
- Ulceration index (U.I.) mean ([8]; 100 mg/kg): 39,6
- Changes in U.I. in comparison with controls ([8]; 200 mg/kg): -28,1
- No. of stomach without lesions ([8]; 200 mg/kg): 0
- Ulceration index (U.I.) mean ([8]; 200 mg/kg): 34,9
- Changes in U.I. in comparison with controls ([8]; 400 mg/kg): -40,8
- No. of stomach without lesions ([8]; 400 mg/kg): 0
- Ulceration index (U.I.) mean ([8]; 400 mg/kg): 28,7
- anti-ulcer activity (in words) ([8]; ulcer protection tests): active in ulcer protection tests; also recorded: particularly active as an anti-ulcer agent
- column headed by drawing 2 under MDA formation (ratio of hepatic microsomes IC50 to brain homogenate IC50, by arithmetic) [9]: 1.8
- IC50 [9]: 800 nM
- Wound area (m ± s.e.) ([10]; concentration 1%, day 0 (baseline), n = 10): 324.55 ± 3.77 mm^2
- percent variation of wound area in comparison with prednisone controls ([10]; concentration 1%, day 1): -8.17%
- Wound area (m ± s.e.) ([10]; concentration 1%, day 1, n = 10): 317.39 ± 3.37 mm^2
- percent variation of wound area in comparison with prednisone controls ([10]; concentration 1%, day 2): -9.70%
- Wound area (m ± s.e.) ([10]; concentration 1%, day 2, n = 10): 315.04 ± 3.58 mm^2
- percent variation of wound area in comparison with prednisone controls ([10]; concentration 1%, day 3): -9.60%
- Wound area (m ± s.e.) ([10]; concentration 1%, day 3, n = 10): 308.01 ± 3.77 mm^2
- Wound area (m ± s.e.) ([10]; concentration 2%, day 0 (baseline), n = 10): 327.71 ± 2.92 mm^2
- percent variation of wound area in comparison with prednisone controls ([10]; concentration 2%, day 1): -8.17%
- Wound area (m ± s.e.) ([10]; concentration 2%, day 1, n = 10): 317.39 ± 3.36 mm^2
- percent variation of wound area in comparison with prednisone controls ([10]; concentration 2%, day 2): -12.38%
- Wound area (m ± s.e.) ([10]; concentration 2%, day 2, n = 10): 305.69 ± 3.89 mm^2
- percent variation of wound area in comparison with prednisone controls ([10]; concentration 2%, day 3): -15.88%
- Wound area (m ± s.e.) ([10]; concentration 2%, day 3, n = 10): 286.62 ± 3.74 mm^2
- LD50 ([11]; ip): > 3000 mg/kg
- LD50 ([11]; po): > 6000 mg/kg
- healing activity (in words) [12]: higher than that of known drugs employed in this therapeutic field; also recorded: manifests itself by the topical and also oral route both in normal animals and in animals in which the healing process has been slowed down by treatment with steroids; also recorded: superior to that of known drugs employed in this field
- anti-lipid peroxidation activity (in words) [13]: strong anti-lipid peroxidation activity
- IC50 ([13]; in vitro): 450 nM
- inhibition of MDA (malondialdehyde) formation (in words) ([13]; in vitro, rat brain homogenate and rat hepatic microsomes): strongly inhibited

Structure (SMILES): O=c1c(O)c(-c2ccc(O)c(O)c2)oc2cc(O)cc(O)c12 [Quercetin, reference compound]
- IC50 [6]: 17 µM
- column headed by drawing 3 (hepatic microsomes) (ratio of NADPH consumption IC50 to MDA formation IC50, by arithmetic) ([6]; hepatic microsomes): 3.3
- column headed by drawing 2 under MDA formation (ratio of hepatic microsomes IC50 to brain homogenate IC50, by arithmetic) [9]: 5.7
- IC50 [9]: 5100 nM
- IC50 ([13]; in vitro): 900 nM

From US4925870A, “Therapeutic use of proanthocyanidine A2 as a cytoprotective agent” (Inverni Della Beffa SpA, priority 1985, dated 1990)
